Relative viability data for 14 cell lines are collected here from the supplement of paper PMC10307832.

What all share (test): relative viability (nuclei count vs DMSO), 5 days (fraction); higher = more cells survive
Compound in the assay “Vemurafenib + Alpelisib”: CCCS(=O)(=O)Nc1ccc(F)c(C(=O)c2c[nH]c3ncc(-c4ccc(Cl)cc4)cc23)c1F [Vemurafenib] + Cc1nc(NC(=O)N2CCC[C@H]2C(N)=O)sc1-c1ccnc(C(C)(C)C(F)(F)F)c1 [Alpelisib] (partner 2 µM)
The gist of the method: (§1)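 Relative viability is defined as nuclei in treated wells over nuclei in vehicle wells. Duplicate plates were run and medians reported. Lung cancer cell lines in 1536-well plates were dosed by pin tool one day after seeding, with one drug or with a fixed anchor-drug dose plus five library-drug doses (not always all listed) in √10 steps, and nuclei were counted after 5 days.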

Compound in the assay “Vemurafenib + Phenformin”: CCCS(=O)(=O)Nc1ccc(F)c(C(=O)c2c[nH]c3ncc(-c4ccc(Cl)cc4)cc23)c1F [Vemurafenib] + N=C(N)NC(=N)NCCc1ccccc1 [Phenformin] (partner 250 µM)
The procedure, abridged:
as §1

Compound in the assay “OSI-027 + Palbociclib”: COc1cccc2cc(-c3nc([C@H]4CC[C@H](C(=O)O)CC4)n4ncnc(N)c34)[nH]c12 [OSI-027] + CC(=O)c1c(C)c2cnc(Nc3ccc(N4CCNCC4)cn3)nc2n(C2CCCC2)c1=O [Palbociclib] (partner 0.5 µM)
The gist of the method:
as §1

Compound in the assay “Alpelisib + Dasatinib”: Cc1nc(NC(=O)N2CCC[C@H]2C(N)=O)sc1-c1ccnc(C(C)(C)C(F)(F)F)c1 [Alpelisib] + Cc1nc(Nc2ncc(C(=O)Nc3c(C)cccc3Cl)s2)cc(N2CCN(CCO)CC2)n1 [Dasatinib] (partner 0.075 µM)
The procedure, abridged: as §1

As to EBC-1, the relative viability was found to be 0.835 in the assay with Vemurafenib + Alpelisib (first compound 0.03162 µM), 0.833 with Vemurafenib + Alpelisib (first compound 0.1 µM), 0.805 with Vemurafenib + Alpelisib (first compound 0.3162 µM) and 0.834 in the assay with Vemurafenib + Alpelisib (first compound 1 µM).

Regarding EKVX, the relative viability in the assay with Vemurafenib + Alpelisib (first compound 0.03162 µM) is 0.821; with Vemurafenib + Alpelisib (first compound 0.3162 µM), 0.904; in the assay with Vemurafenib + Alpelisib (first compound 1 µM), 0.777; with Vemurafenib + Phenformin (first compound 0.03162 µM) it was 0.223; with Vemurafenib + Phenformin (first compound 0.3162 µM), 0.223; in the assay with Vemurafenib + Phenformin (first compound 1 µM), 0.213. The relative viability in the assay with OSI-027 + Palbociclib (first compound 0.01 µM) came out at 0.332; in the assay with OSI-027 + Palbociclib (first compound 0.03162 µM), 0.44; with OSI-027 + Palbociclib (first compound 0.1 µM) it was 0.34; in the assay with OSI-027 + Palbociclib (first compound 0.3162 µM), 0.263; in the assay with OSI-027 + Palbociclib (first compound 1 µM) it was 0.22; with Alpelisib + Dasatinib (first compound 0.04 µM), 0.556. Also, the relative viability in the assay with Alpelisib + Dasatinib (first compound 0.1265 µM) turned out to be 0.572; with Alpelisib + Dasatinib (first compound 0.4 µM), 0.544; in the assay with Alpelisib + Dasatinib (first compound 1.265 µM), 0.407; in the assay with Alpelisib + Dasatinib (first compound 4 µM), 0.266.

For the cell line HCC-44, the relative viability with Vemurafenib + Alpelisib (first compound 0.03162 µM) turned out to be 0.761; with Vemurafenib + Alpelisib (first compound 0.1 µM), 0.755; with Vemurafenib + Alpelisib (first compound 0.3162 µM), 0.784; with Vemurafenib + Alpelisib (first compound 1 µM), 0.795; in the assay with Vemurafenib + Phenformin (first compound 0.03162 µM), 0.157; in the assay with Vemurafenib + Phenformin (first compound 0.1 µM), 0.206. For the same cell line, the relative viability in the assay with Vemurafenib + Phenformin (first compound 1 µM) came out at 0.213; with OSI-027 + Palbociclib (first compound 0.01 µM), 0.904; with OSI-027 + Palbociclib (first compound 0.03162 µM), 0.945; in the assay with OSI-027 + Palbociclib (first compound 0.1 µM), 0.955; in the assay with OSI-027 + Palbociclib (first compound 0.3162 µM), 0.929; with OSI-027 + Palbociclib (first compound 1 µM), 0.877.

As for IA-LM, the relative viability worked out at 0.824 with Vemurafenib + Alpelisib (first compound 0.03162 µM), 0.81 in the assay with Vemurafenib + Alpelisib (first compound 0.1 µM), 0.777 with Vemurafenib + Alpelisib (first compound 0.3162 µM) and 0.548 in the assay with Vemurafenib + Alpelisib (first compound 1 µM).

Regarding NCI-H522, the relative viability with Vemurafenib + Phenformin (first compound 0.03162 µM) is 0.651; in the assay with Vemurafenib + Phenformin (first compound 0.1 µM) it was 0.536; with Vemurafenib + Phenformin (first compound 0.3162 µM), 0.547; with Vemurafenib + Phenformin (first compound 1 µM) it was 0.622; with OSI-027 + Palbociclib (first compound 0.01 µM), 0.995; in the assay with OSI-027 + Palbociclib (first compound 0.03162 µM) it was 0.938. Besides, the relative viability with OSI-027 + Palbociclib (first compound 0.1 µM) was 1.04; with OSI-027 + Palbociclib (first compound 0.3162 µM), 0.79; in the assay with OSI-027 + Palbociclib (first compound 1 µM) it was 0.535; in the assay with Alpelisib + Dasatinib (first compound 0.04 µM) it was 0.952; with Alpelisib + Dasatinib (first compound 0.1265 µM), 0.772; with Alpelisib + Dasatinib (first compound 0.4 µM), 0.786. The relative viability with Alpelisib + Dasatinib (first compound 1.265 µM) was found to be 0.709; with Alpelisib + Dasatinib (first compound 4 µM) it was 0.647.

In the case of NCI-H596, the relative viability with Vemurafenib + Alpelisib (first compound 0.03162 µM) came to 0.526; with Vemurafenib + Alpelisib (first compound 0.1 µM), 0.48; with Vemurafenib + Alpelisib (first compound 0.3162 µM) it was 0.475; in the assay with Vemurafenib + Alpelisib (first compound 1 µM), 0.42; with Vemurafenib + Phenformin (first compound 0.03162 µM), 0.871; in the assay with Vemurafenib + Phenformin (first compound 0.1 µM), 0.748. The relative viability came to 0.725 in the assay with Vemurafenib + Phenformin (first compound 0.3162 µM); 0.56 in the assay with Vemurafenib + Phenformin (first compound 1 µM); 0.564 with Alpelisib + Dasatinib (first compound 0.04 µM); 0.67 with Alpelisib + Dasatinib (first compound 0.1265 µM); 0.578 in the assay with Alpelisib + Dasatinib (first compound 0.4 µM); 0.337 with Alpelisib + Dasatinib (first compound 1.265 µM). Moreover, in the assay with Alpelisib + Dasatinib (first compound 4 µM), the relative viability is 0.385.

On to NCI-H1299, for which the relative viability was 1.05 in the assay with Vemurafenib + Alpelisib (first compound 0.03162 µM), 1.05 in the assay with Vemurafenib + Alpelisib (first compound 0.1 µM), 0.928 with Vemurafenib + Alpelisib (first compound 0.3162 µM) and 0.985 with Vemurafenib + Alpelisib (first compound 1 µM).

NCI-H1563: the relative viability with Vemurafenib + Alpelisib (first compound 0.03162 µM) was found to be 0.874; with Vemurafenib + Alpelisib (first compound 0.1 µM) it was 0.935; with Vemurafenib + Alpelisib (first compound 0.3162 µM), 0.904; in the assay with Vemurafenib + Alpelisib (first compound 1 µM) it was 0.949; with Vemurafenib + Phenformin (first compound 0.03162 µM), 0.632; with Vemurafenib + Phenformin (first compound 0.1 µM) it was 0.705. Also, the relative viability in the assay with Vemurafenib + Phenformin (first compound 0.3162 µM) worked out at 0.66; in the assay with Vemurafenib + Phenformin (first compound 1 µM), 0.672; with Alpelisib + Dasatinib (first compound 0.04 µM), 0.474; with Alpelisib + Dasatinib (first compound 0.1265 µM), 0.395; in the assay with Alpelisib + Dasatinib (first compound 0.4 µM), 0.434; with Alpelisib + Dasatinib (first compound 1.265 µM) it was 0.386. In addition, the relative viability in the assay with Alpelisib + Dasatinib (first compound 4 µM) is 0.375.

On to NCI-H1623, for which the relative viability with Vemurafenib + Phenformin (first compound 0.03162 µM) came to 0.565; with Vemurafenib + Phenformin (first compound 0.3162 µM), 0.623; with Vemurafenib + Phenformin (first compound 1 µM), 0.569; in the assay with Alpelisib + Dasatinib (first compound 0.04 µM), 0.528; with Alpelisib + Dasatinib (first compound 0.1265 µM) it was 0.496; in the assay with Alpelisib + Dasatinib (first compound 0.4 µM), 0.513. The figures for the relative viability with Alpelisib + Dasatinib (first compound 1.265 µM) and with Alpelisib + Dasatinib (first compound 4 µM) were 0.414 and 0.353, respectively.

Turning to NCI-H1648, the relative viability in the assay with OSI-027 + Palbociclib (first compound 0.01 µM) was 0.37; with OSI-027 + Palbociclib (first compound 0.03162 µM), 0.267; in the assay with OSI-027 + Palbociclib (first compound 0.3162 µM), 0.222; with OSI-027 + Palbociclib (first compound 1 µM), 0.266.

Turning to NCI-H1650, the relative viability with Vemurafenib + Phenformin (first compound 0.1 µM) amounted to 0.353; with Vemurafenib + Phenformin (first compound 1 µM), 0.376; in the assay with OSI-027 + Palbociclib (first compound 0.01 µM) it was 0.361; with OSI-027 + Palbociclib (first compound 0.03162 µM), 0.344; with OSI-027 + Palbociclib (first compound 0.1 µM), 0.278; with OSI-027 + Palbociclib (first compound 0.3162 µM) it was 0.357. Moreover, the relative viability with OSI-027 + Palbociclib (first compound 1 µM) turned out to be 0.286; with Alpelisib + Dasatinib (first compound 0.04 µM), 0.316; in the assay with Alpelisib + Dasatinib (first compound 0.1265 µM), 0.309; in the assay with Alpelisib + Dasatinib (first compound 0.4 µM), 0.322; with Alpelisib + Dasatinib (first compound 1.265 µM), 0.257; with Alpelisib + Dasatinib (first compound 4 µM), 0.271.

Take NCI-H1703: the relative viability turned out to be 0.353 in the assay with Vemurafenib + Alpelisib (first compound 0.03162 µM), 0.318 in the assay with Vemurafenib + Alpelisib (first compound 0.1 µM), 0.292 in the assay with Vemurafenib + Alpelisib (first compound 0.3162 µM) and 0.301 with Vemurafenib + Alpelisib (first compound 1 µM).

For the cell line NCI-H2342, the relative viability with Vemurafenib + Phenformin (first compound 0.03162 µM) was 0.443; with Vemurafenib + Phenformin (first compound 0.1 µM), 0.574; with Vemurafenib + Phenformin (first compound 0.3162 µM), 0.622; with Vemurafenib + Phenformin (first compound 1 µM) it was 0.737; in the assay with OSI-027 + Palbociclib (first compound 0.01 µM), 0.51; with OSI-027 + Palbociclib (first compound 0.03162 µM) it was 0.503. Moreover, the relative viability with OSI-027 + Palbociclib (first compound 0.1 µM) turned out to be 0.492; with OSI-027 + Palbociclib (first compound 0.3162 µM) it was 0.443; with OSI-027 + Palbociclib (first compound 1 µM), 0.48; with Alpelisib + Dasatinib (first compound 0.04 µM) it was 0.327; with Alpelisib + Dasatinib (first compound 0.1265 µM) it was 0.313; in the assay with Alpelisib + Dasatinib (first compound 0.4 µM), 0.306. Also, the relative viability with Alpelisib + Dasatinib (first compound 1.265 µM) turned out to be 0.269; with Alpelisib + Dasatinib (first compound 4 µM) it was 0.272.

SW 900: the relative viability in the assay with Vemurafenib + Phenformin (first compound 0.03162 µM) amounted to 0.532; with Vemurafenib + Phenformin (first compound 0.1 µM), 0.454; in the assay with Vemurafenib + Phenformin (first compound 0.3162 µM) it was 0.476; with Vemurafenib + Phenformin (first compound 1 µM) it was 0.614; with OSI-027 + Palbociclib (first compound 0.01 µM), 0.531; with OSI-027 + Palbociclib (first compound 0.03162 µM), 0.579. In addition, the relative viability with OSI-027 + Palbociclib (first compound 0.1 µM) turned out to be 0.577; in the assay with OSI-027 + Palbociclib (first compound 0.3162 µM), 0.375; with OSI-027 + Palbociclib (first compound 1 µM), 0.288; in the assay with Alpelisib + Dasatinib (first compound 0.04 µM), 0.534; with Alpelisib + Dasatinib (first compound 0.1265 µM) it was 0.58; with Alpelisib + Dasatinib (first compound 0.4 µM), 0.612. Further, the relative viability in the assay with Alpelisib + Dasatinib (first compound 1.265 µM) was 0.578; in the assay with Alpelisib + Dasatinib (first compound 4 µM), 0.518.
